What was measured:
NK-92 (IL-2 2.5 ng/mL) [1] = experiment: drug sensitivity score (DSS) (DSS units); higher = more sensitive; extreme values may be limits of the assay; conditions: 72 h
KAI3 (IL-2 2.5 ng/mL) [2] = experiment: as above; conditions: 72 h
YT (IL-2 2.5 ng/mL) [3] = experiment: as above; conditions: 72 h
NKL (IL-2 2.5 ng/mL) [4] = experiment: as above; conditions: 72 h
[5] = tested on: normal primary NK cells, pool 1 (3 donors) (IL-2 2.5 ng/mL); experiment: as above; conditions: 72 h
[6] = tested on: normal primary NK cells, pool 1 (3 donors), resting (IL-2 0 ng/mL); experiment: as above; conditions: 72 h
[7] = tested on: normal primary NK cells, pool 3 (3 donors) (IL-2 2.5 ng/mL); experiment: as above; conditions: 72 h
IMC-1 (IL-2 20 ng/mL) [8] = experiment: as above; conditions: 72 h
DERL-7 (IL-2 2.5 ng/mL) [9] = experiment: as above; conditions: 72 h
NK-YS (IL-2 2.5 ng/mL) [10] = experiment: as above; conditions: 72 h
KHYG-1 (IL-2 2.5 ng/mL) [11] = experiment: as above; conditions: 72 h
[12] = tested on: normal primary NK cells, pool 2 (3 donors) (IL-2 2.5 ng/mL); experiment: as above; conditions: 72 h
SNK-6 (IL-2 2.5 ng/mL) [13] = experiment: as above; conditions: 72 h
[14] = tested on: normal NK cells expanded with K562-aAPC; experiment: percent inhibition of viability; higher = more inhibition; conditions: 72 h, IL-2 2.5 ng/mL
Method: (§1)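 Drug sensitivity and resistance testing on K562-aAPC-expanded normal NK cells: 5 concentrations (10-fold steps over a 10,000-fold range), 72 h at 37 °C, viability by CellTiter-Glo normalised to DMSO and benzethonium chloride controls; DSS from the fitted curve.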

[15] = tested on: normal NK cells expanded with K562-aAPC; experiment: drug sensitivity score (DSS) (DSS units); higher = more sensitive; extreme values may be limits of the assay; conditions: 72 h; IL-2 2.5 ng/mL
Method: as §1

NK-92 (IL-2 2.5 ng/mL) [16] = experiment: percent inhibition of viability; higher = more inhibition; conditions: 72 h
KAI3 (IL-2 2.5 ng/mL) [17] = experiment: as above; conditions: 72 h
YT (IL-2 2.5 ng/mL) [18] = experiment: as above; conditions: 72 h
NKL (IL-2 2.5 ng/mL) [19] = experiment: as above; conditions: 72 h
[20] = tested on: normal primary NK cells, pool 1 (3 donors) (IL-2 2.5 ng/mL); experiment: as above; conditions: 72 h
[21] = tested on: normal primary NK cells, pool 1 (3 donors), resting (IL-2 0 ng/mL); experiment: as above; conditions: 72 h
[22] = tested on: normal primary NK cells, pool 3 (3 donors) (IL-2 2.5 ng/mL); experiment: as above; conditions: 72 h
IMC-1 (IL-2 20 ng/mL) [23] = experiment: as above; conditions: 72 h
DERL-7 (IL-2 2.5 ng/mL) [24] = experiment: as above; conditions: 72 h
NK-YS (IL-2 2.5 ng/mL) [25] = experiment: as above; conditions: 72 h
KHYG-1 (IL-2 2.5 ng/mL) [26] = experiment: as above; conditions: 72 h
[27] = tested on: normal primary NK cells, pool 2 (3 donors) (IL-2 2.5 ng/mL); experiment: as above; conditions: 72 h
SNK-6 (IL-2 2.5 ng/mL) [28] = experiment: as above; conditions: 72 h

COc1cc2c(N3CCN(C(=O)Nc4ccc(OC(C)C)cc4)CC3)ncnc2cc1OCCCN1CCCCC1 [Tandutinib] (max concentration tested 1000 nM)
Conditions | drug sensitivity score
DERL-7 (IL-2 2.5 ng/mL) [9] | 0
IMC-1 (IL-2 20 ng/mL) [8] | 0.83
KAI3 (IL-2 2.5 ng/mL) [2] | 0.84
KHYG-1 (IL-2 2.5 ng/mL) [11] | 0.42
NK-92 (IL-2 2.5 ng/mL) [1] | 4.33
NK-YS (IL-2 2.5 ng/mL) [10] | 0
NKL (IL-2 2.5 ng/mL) [4] | 0
SNK-6 (IL-2 2.5 ng/mL) [13] | 0
YT (IL-2 2.5 ng/mL) [3] | 0
[5] | 0
[6] | 0
[7] | 0
[12] | 0
[15] | 0

percent inhibition of viability [%]
Conditions | 0.1 nM | 1 nM | 10 nM | 100 nM | 1000 nM
DERL-7 (IL-2 2.5 ng/mL) [24] | 6.14 | 3.13 | 1.63 | 2.2 | -0.71
IMC-1 (IL-2 20 ng/mL) [23] | -5.53 | -2.46 | 0.78 | 2.8 | 18.4
KAI3 (IL-2 2.5 ng/mL) [17] | -0.83 | 3.14 | 3.31 | 3.31 | 17.9
KHYG-1 (IL-2 2.5 ng/mL) [26] | 3.28 | 0.15 | 6.9 | 6.14 | 16.8
NK-92 (IL-2 2.5 ng/mL) [16] | -7.68 | 0.56 | 17.9 | 8.5 | 19.1
NK-YS (IL-2 2.5 ng/mL) [25] | 2.01 | 2.91 | 6.63 | 1.61 | 13.4
NKL (IL-2 2.5 ng/mL) [19] | -15.4 | -9.75 | -9.72 | -2.92 | 7.53
SNK-6 (IL-2 2.5 ng/mL) [28] | 2.47 | -9.17 | 1.36 | -17.2 | -2.8
YT (IL-2 2.5 ng/mL) [18] | 1.06 | 0.08 | 6.39 | -0.96 | 9.65
[14] | 0.5 | 4.31 | 2.45 | 1.29 | 8.72
[20] | 3.36 | -11.3 | -7.24 | -22 | -12.1
[21] | 6.87 | -8.83 | -1.76 | -7.72 | -7.9
[22] | -11.8 | -8.39 | -1.84 | -4.05 | -10.6
[27] | -9.1 | 2.32 | -0.09 | -2.34 | 4.26

O[C@H]1CC[C@H](Nc2ncc3nc(Nc4c(F)cc(F)cc4F)n([C@H]4CCOC4)c3n2)CC1 [Tanzisertib] (max concentration tested 10000 nM)
Conditions | drug sensitivity score
DERL-7 (IL-2 2.5 ng/mL) [9] | 0.7
IMC-1 (IL-2 20 ng/mL) [8] | 0
KAI3 (IL-2 2.5 ng/mL) [2] | 0
KHYG-1 (IL-2 2.5 ng/mL) [11] | 0
NK-92 (IL-2 2.5 ng/mL) [1] | 0
NK-YS (IL-2 2.5 ng/mL) [10] | 1.7
NKL (IL-2 2.5 ng/mL) [4] | 4.27
SNK-6 (IL-2 2.5 ng/mL) [13] | 0
YT (IL-2 2.5 ng/mL) [3] | 0.43
[5] | 0.03
[6] | 0
[7] | 0
[12] | 0.02
[15] | 0.57

percent inhibition of viability [%]
Conditions | 1 nM | 10 nM | 100 nM | 1000 nM | 10000 nM
DERL-7 (IL-2 2.5 ng/mL) [24] | 2.01 | 0.84 | 5.01 | 1.8 | 18.5
IMC-1 (IL-2 20 ng/mL) [23] | -1.71 | -1.33 | 2.23 | -2.89 | 5.65
KAI3 (IL-2 2.5 ng/mL) [17] | -8.76 | -8.77 | 4.38 | -3.26 | 2.19
KHYG-1 (IL-2 2.5 ng/mL) [26] | 0.6 | 1.16 | 7.05 | 3.25 | 12.8
NK-92 (IL-2 2.5 ng/mL) [16] | -1.51 | -5.43 | 11.5 | -0.78 | 4.63
NK-YS (IL-2 2.5 ng/mL) [25] | -2.74 | -2.64 | 8.64 | 8.4 | 27.7
NKL (IL-2 2.5 ng/mL) [19] | -12.2 | -7.14 | 8.81 | 20.3 | 40
SNK-6 (IL-2 2.5 ng/mL) [28] | -5.24 | -3.37 | -1.51 | -9.49 | -28.9
YT (IL-2 2.5 ng/mL) [18] | 1.29 | 0.43 | 6.25 | 4.44 | 17.9
[14] | -0.53 | 1.03 | -5.53 | 1.96 | 16.8
[20] | -1.02 | -9.12 | -4.55 | -5.56 | 12.8
[21] | -2.07 | -5.9 | 3.76 | -27.5 | -23.7
[22] | -10.2 | -3.98 | 0.77 | -8.69 | 3.78
[27] | -13.6 | -1.21 | 2.95 | -6.75 | 12.9

Source: the supplement of paper PMC5908809
